Assay results reported in patent US20110300147A9, “Inhibiting tumor cell invasion, metastasis and angiogenesis” (The Scripps Research institute, priority 2005, published 2011).

Legend:
[1] = cytotoxicity of AEPI-1 in wild type 293 cells; format: cell-based, human; settings: human, wild type 293 cells
Experimental: (§1) To further evaluate the role of asparaginyl endopeptidases in angiogenesis, four asparaginyl endopeptidases inhibitors (AEPI) were tested using recombinant legumain in an amidolytic activity assay with fluorescent substrate. FIG. 4A graphically illustrates the effects that AEPI-1 to AEPI-4 (also referred to as legumain inhibitors LI-1 to LI-4) have on asparaginyl endopeptidase activity. […] No apparent cytotoxicity was observed until almost 100 μM AEPI-1 was used in these assays (FIG. 4B).

wild type 293 cells = test: cytotoxicity of AEPI-1 in wild type 293 cells; format: cell-based, human; settings: wild type and legumain-expressing 293 cells
Experimental: as §1

4T1 mammary carcinoma = test: primary 4T1 tumor and spontaneous lung metastasis model; format: in vivo, BALB/c mice; settings: AEPI-1 50 μg i.p. every two days for two weeks
Experimental: Primary 4T1 tumors are generated by subcutaneous injection of 5×10^5 4T1 cells in the right flank of six-week-old BALB/c mice. Two different groups of four animals were treated between days 9 and 27 after tumor induction. The treatments were 100-μl […] injections of PBS alone (control group) or LEG-3 100 μg/100 μl in PBS by intraperitoneal injection every two days for two weeks. Tumor volumes of treated animals were measured every two-day starting on day 9 by microcaliper measurements (volume=width×length×width/2). As soon as the tumor volume reached 1400 mm^3 in the control groups (on day 30th), euthanasia was performed and lungs were removed and fixed in the Bouin's solution. Lung metastases were counted by anatomy microscope. Statistical significance between treatment groups was determined by two-tailed Student's t tests using Microsoft EXCEL software.
Tumor induction was performed by subcutaneous injection of 5×10^5 4T1 cells in the right flank mammary fat pat of six-week-old BALB/c mice. […] Tumor volumes of treated animals were measured everyday starting on day 6 by micro-caliper measurements (volume=width×length×width/2). […] Lung metastases were counted by anatomy microscope. The statistical significance between treatment and control groups was determined by two-tailed Student's t tests using Microsoft EXCEL software.

SMILES: CCOC(=O)C1OC1C(=O)N(CC(N)=O)NC(=O)[C@H](C)NC(=O)[C@H](C)NC(=O)OCc1ccccc1 (stereo partly drawn) [AEPI-1, Cbz-Ala-Ala-AzaAsn-(S,S)-EPCOOEt]
- CC50 [1]: 320 µM
- concentration until which no apparent cytotoxicity was observed (wild type 293 cells): ~100 µM
- growth of 4T1 mammary carcinoma (4T1 mammary carcinoma): inhibits the growth
- spontaneous lung metastasis (4T1 mammary carcinoma): inhibited spontaneous lung metastasis
